Laboratory results from patent publication US20230338342A1, “METHODS OF TREATING RIBONUCLEOTIDE REDUCTASE-RELATED DISEASES WITH A RIBONUCLEOTIDE REDUCTASE INHIBITOR” (Taiho Pharmaceutical Co., Ltd., priority 2020, published 2023).

What was measured:
[1] = test system: Human acute myelocytic leukemia (AML) cell line MV-4-11 cells; assay: Anti-tumor effect in MV-4-11 xenograft under various dosing regimens; assay type: in vivo, male nude mice; conditions: for effect of reducing tumor volume (relative tumor volume, RTV): Day 15, vs Control Group
Method: (§1) Anti-tumor Effect and body weight change in Various Dosing Regimens Human acute myelocytic leukemia (AML) cell line MV-4-11 cells (American Type Culture Collection CRL-9591™) were implanted in the right thorax of male nude mice (CLEA Japan, Inc.). After implantation of the tumor, the major axis (mm) and minor axis (mm) of the tumor were measured, and tumor volume (TV) was calculated for each mouse. Then, the mice were assigned to the following groups, Control group (○), Continuous Dosing Group (●: 100 mg/kg/day; ◊: 150 mg/kg/day) and 1-week ON+1-week OFF Dosing Group (▲: 200 mg/kg/day; ◆: 300 mg/kg/day), so that the average TV of each group was equivalent. The day in which the grouping (n=5) was conducted was taken as Day 0.
(§2) 5-chloro-2-(N-((1S,2R)-2-(6-fluoro-2,3-dimetylphenyl)-1-(5-oxo-4,5-dihydro-1,3,4-o xadiazol-2-yl)propyl)sulfamoyl)benzamide (Compound A) was suspended in 5 mg/mL hypromellose solution to provide appropriate test samples for 100 mg/kg, 150 mg/kg, 200 mg/kg, and 300 mg/kg dosing regimen. Animals of the Control group were not treated.
To mice in the Continuous Dosing Group, 100 mg/kg/day or 150 mg/kg/day of Compound A was orally administered once daily from Day 1 to Day 14. The total dosage for mice in the Continuous Dosing Group administered 100 mg/kg/day (Group C-1) is 1400 mg/kg, and the total dosage for mice in the Continuous Dosing Group administered 150 mg/kg/day (Group C-2) is 2100 mg/kg.
To mice in the 1-week ON+1-week OFF Dosing Group, 200 mg/kg/day or 300 mg/ kg/day of Compound A was orally administered once daily from Day 1 to Day 7, and not administered from Day 8 to Day 14, which corresponds to a resting period of 7 days (1 week) for recovery. The total dosage for mice in the 1-week ON+1-week OFF Dosing Group administered 200 mg/kg/day (Group I-1) is 1400 mg/kg, and the total dosage for mice in the 1-week ON+1-week OFF Dosing Group administered 300 mg/ kg/day (Group I-2) are 2100 mg/kg.
On Days 4, 8, 11 and 15, using the following formula: TV (mm^3) = (major axis x minor axis^2) / 2, relative tumor volume (RTV) was calculated as an index of anti-tumor effect during the dosing period for each group (FIG. 1).

[2] = Body weight change as index of toxicity in MV-4-11 tumor-bearing mice; assay type: in vivo, male nude mice; conditions: up to Day 15
Method: as §1
as §2, with “treated. […]” for “treated.”
On the other hand, the body weight (BW) was measured on Days 4, 8, 11 and 15, and the average body weight change (BW change, %) relative to the body weight on Day 0 was calculated by the following formula, as an index of toxicity during the dosing period: BW change (%) = [(BW on Day n) - (BW on Day 0)] / (BW on Day 0) x 100.

[3] = test system: 22 cell lines; assay: Cell proliferation assay (CellTiter-Glo) and correlation with SLFN11 mRNA expression; assay type: cell-based; conditions: 10 micro mol/L, 3 days of exposure, Pearson's correlation
From the text: The HEL, NUGC-3, and RPMI8226 cell lines were obtained from the Japanese Collection of Research Bioresources. The 786-O, CFPAC-1, DU145, HCC1599, HCC1806, HCC38, HCT116, HL-60, K-562, MSTO-211H, MV-4-11, NCI-H460, NCI-H2170, and THP-1 cell lines were obtained from the ATCC. The A2780 and COLO 792 cell lines were obtained from the European Collection of Authenticated Cell Cultures. The A549, A673, and MCF-7 cell lines were obtained from DS Pharma Biomedical Co., Ltd.
Cell proliferation assay was performed as reported previously (Hasako, S., et al. Mol Cancer Ther 17, 1648-1658 (2018)). Briefly, cells were plated and incubated for 1 day, followed by 3 days of exposure to the compound. After exposure to Compound A, viable cells were detected by using the CellTiter-Glo luminescent cell viability assay (Promega). The experiment was performed in triplicates.
Correlation analysis of SLFN11 expression and Compound A cytotoxicity was performed using Pearson’s correlation coefficient (P < 0.05) in JMP 13 software. The gene expression data of cell lines were available online CCLE (http://www.broadinstitute.org/ccle/home). Compound A cytotoxicity data from 22 cell lines in Table 5 were used for correlation analysis (data for correlation was not shown).

[4] = test system: A673 cells; assay: Cell proliferation assay in A673 cells treated with siRNA against SLFN11; assay type: cell-based; conditions: siSLFN11-1 and siSLFN11-2 vs siControl, 72 h treatment
Method: (§3) A673 cells were transfected with 1 nM siRNAs for 24 h using Lipofectamine® RNAiMAX Reagent (Thermo Fisher Scientific Inc.) and then re-seeded onto a 96-well plate for cell proliferation assay and caspase induction assay and onto dishes for immunoblotting analysis. siRNAs were obtained from Thermo Fisher Scientific Inc. as follows: Silencer® Select Negative Control #1 siRNA (#4390843 used as siControl), SLFN11 Silencer® Select Pre-designed siRNA (#s40703 used as siSLFN11-1, and #s40704 as siSLFN11-2).
Cell proliferation assay was performed as reported previously (Hasako, et al., ibid.). Briefly, cells treated with siRNAs for 24 h were plated onto 96 well plate and incubated for 24 h, followed by 3 days of exposure to the compound. After compound exposure, viable cells were detected by using the CellTiter-Glo luminescent cell viability assay (Promega).

[5] = test system: A673 cells; assay: Caspase induction analysis (Caspase-Glo 3/7) in A673 cells treated with siRNA against SLFN11; assay type: cell-based; conditions: A673 cells transfected with siRNA against SLFN11, 24 h treatment
Method: as §3
Caspase induction analysis was performed as reported previously (Hasako., et al., ibid). Briefly, the cells with siRNAs for 24 h were seeded onto 96 well plate, incubated for24 h, and then treated with Compound A for 24 h. Caspase induction was detected by using the Caspase-Glo 3/7 assay (Promega). Relative caspase-3/7 activation was calculated by applying the correction with respect to cell number. The experiment was performed in triplicates.

[6] = biological target: T1, RNR (Homo sapiens, UniProt P23921+P31350); conditions: background art; cited from earlier work
T1 sequence (P23921 1-792): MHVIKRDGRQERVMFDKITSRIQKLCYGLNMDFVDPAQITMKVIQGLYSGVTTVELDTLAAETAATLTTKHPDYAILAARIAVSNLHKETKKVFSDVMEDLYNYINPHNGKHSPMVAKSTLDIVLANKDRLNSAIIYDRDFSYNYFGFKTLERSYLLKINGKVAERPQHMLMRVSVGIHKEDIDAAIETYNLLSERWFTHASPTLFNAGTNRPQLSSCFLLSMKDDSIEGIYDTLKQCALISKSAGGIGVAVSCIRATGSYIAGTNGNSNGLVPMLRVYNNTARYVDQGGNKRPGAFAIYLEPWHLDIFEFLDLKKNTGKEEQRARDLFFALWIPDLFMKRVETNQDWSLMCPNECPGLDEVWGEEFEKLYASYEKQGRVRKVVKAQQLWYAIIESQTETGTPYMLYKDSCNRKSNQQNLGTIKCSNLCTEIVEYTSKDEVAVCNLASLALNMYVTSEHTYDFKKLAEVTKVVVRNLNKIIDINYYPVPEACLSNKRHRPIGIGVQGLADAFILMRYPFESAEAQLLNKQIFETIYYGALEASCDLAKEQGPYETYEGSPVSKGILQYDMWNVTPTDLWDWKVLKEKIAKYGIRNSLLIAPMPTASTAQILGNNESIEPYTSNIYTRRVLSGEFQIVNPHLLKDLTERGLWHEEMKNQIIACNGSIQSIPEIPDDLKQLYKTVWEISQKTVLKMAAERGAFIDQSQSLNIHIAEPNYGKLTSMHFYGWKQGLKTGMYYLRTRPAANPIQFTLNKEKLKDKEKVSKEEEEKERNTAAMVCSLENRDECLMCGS
T1 sequence (P31350 1-389): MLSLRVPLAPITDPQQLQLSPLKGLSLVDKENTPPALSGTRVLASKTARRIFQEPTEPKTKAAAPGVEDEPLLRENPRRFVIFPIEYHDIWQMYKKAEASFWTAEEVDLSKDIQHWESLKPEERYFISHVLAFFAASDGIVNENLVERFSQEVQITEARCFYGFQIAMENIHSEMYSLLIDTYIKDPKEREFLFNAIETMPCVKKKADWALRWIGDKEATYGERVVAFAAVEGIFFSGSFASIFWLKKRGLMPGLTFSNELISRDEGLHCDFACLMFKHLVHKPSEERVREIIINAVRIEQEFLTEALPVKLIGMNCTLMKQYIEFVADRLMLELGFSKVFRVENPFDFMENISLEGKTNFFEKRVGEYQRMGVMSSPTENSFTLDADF

Structure (SMILES)	effect of reducing tumor volume (relative tumor volume, RTV) ([1]; 1-week ON+1-week OFF Dosing Group, 200 or 300 mg/kg/day orally once daily Day 1 to Day 7, rest Day 8 to Day 14)	effect of reducing tumor volume (relative tumor volume, RTV) ([1]; Continuous Dosing Group, 100 or 150 mg/kg/day orally once daily Day 1 to Day 14)	effect of reducing tumor volume, Group I-1 compared with Group C-1 ([1]; total dosage 1400 mg/kg, I-1 200 mg/kg/day 1-week ON+1-week OFF vs C-1 100 mg/kg/day continuous)	effect of reducing tumor volume, Group I-2 compared with Group C-2 ([1]; total dosage 2100 mg/kg, I-2 300 mg/kg/day 1-week ON+1-week OFF vs C-2 150 mg/kg/day continuous)	body weight change (BW change) ([2]; 1-week ON+1-week OFF Dosing Group (Groups I-1 and I-2), 200 or 300 mg/kg/day orally Day 1 to Day 7)	body weight change (BW change) ([2]; Continuous Dosing Group (Groups C-1 and C-2), 100 or 150 mg/kg/day orally Day 1 to Day 14)	correlation between SLFN11 mRNA expression and relative cell growth (%) [3]	cytotoxic effect (cell growth) after SLFN11 knockdown [4]	caspase-3/7 activation after SLFN11 knockdown [5]	RNR inhibitory activity [6]
Cc1ccc(F)c([C@@H](C)[C@H](NS(=O)(=O)c2ccc(Cl)cc2C(N)=O)c2n[nH]c(=O)o2)c1C [Compound A, 5-chloro-2-(N-((1S,2R)-2-(6-fluoro-2,3-dimetylphenyl)-1-(5-oxo-4,5-dihydro-1,3,4-oxadiazol-2-yl)propyl)sulfamoyl)benzamide]	shows the effect of reducing tumor volume compared with Control Group	shows the effect of reducing tumor volume compared with Control Group	tends to be higher than Group C-1, though the difference is not statistically significant	seems to be similar	shows drastic recovery in body weight	does not show satisfactorily recovery in terms of body weight loss	a significant correlation	SLFN11 knockdown significantly suppressed the cytotoxic effect	suppression of Compound A-induced caspase-3/7 activation	potent
NC(=O)NO [HU, hydroxyurea, reference compound]	–	–	–	–	–	–	–	–	–	weak
